{"source": "patent US9463247B2", "about": "“Branched alkyl and cycloalkyl terminated biodegradable lipids for the delivery of active agents” (ALNYLAM PHARMACEUTICALS, INC., priority 2011, dated 2016)", "data": [{"system": "Factor VII (FVII)", "experiment": "In vivo determination of efficacy of lipid formulations: FVII knockdown in mice (Biophen FVII chromogenic assay)", "set-up": "species or system mouse (C57Bl/6)", "settings": "FVII siRNA lipid formulation containing the cationic lipid; i.v. lateral tail vein; female C57Bl/6 mice; serum 24 hours later; dose resulting in a 50% reduction in plasma FVII levels compared to control animals", "protocol": "Test formulations were prepared using the following in-line mixing method: […]\nIndividual and separate stock solutions are prepared—one containing lipid and the other siRNA. Lipid stock containing lipid A, DSPC, cholesterol and PEG lipid is prepared by solubilized in 90% ethanol. The remaining 10% is low pH citrate buffer. The concentration of the lipid stock is 4 mg/mL. The pH of this citrate buffer can range between pH 3-5, depending on the type of fusogenic lipid employed. The siRNA is also solubilized in citrate buffer at a concentration of 4 mg/mL. For small scale, 5 mL of each stock solution is prepared.\nStock solutions are completely clear and lipids must be completely solubilized before combining with siRNA. Therefore stock solutions may be heated to completely solubilize the lipids. The siRNAs used in the process may be unmodified oligonucleotides or modified and may be conjugated with lipophilic moieties such as cholesterol.\nThe individual stocks are combined by pumping each solution to a T-junction. A dual-head Watson-Marlow pump is used to simultaneously control the start and stop of the two streams. A 1.6 mm polypropylene tubing is further downsized to a 0.8 mm tubing in order to increase the linear flow rate. The polypropylene line (ID=0.8 mm) are attached to either side of a T-junction. The polypropylene T has a linear edge of 1.6 mm for a resultant volume of […]. Each of the large ends (1.6 mm) of polypropylene line is placed into test tubes containing either solubilized lipid stock or solubilized siRNA. After the T-junction a single tubing is placed where the combined stream will emit. The tubing is then extending into a container with 2× volume of PBS. The PBS is rapidly stirring. The flow rate for the pump is at a setting of 300 rpm or 110 mL/min. Ethanol is removed and exchanged for PBS by dialysis. The lipid formulations are then concentrated using centrifugation or diafiltration to an appropriate working concentration.\nTest formulations are initially assessed for their FVII knockdown in female 7-9 week old, 15-25 g, female C57Bl/6 mice at 0.1, 0.3, 1.0 and 5.0 mg/kg with 3 mice per treatment group. All studies include animals receiving either phosphate-buffered saline (PBS, Control group) or a benchmark formulation. Formulations are diluted to the appropriate concentration in PBS immediately prior to testing. Mice are weighed and the appropriate dosing volumes calculated (10 μl/g body weight). Test and benchmark formulations as well as PBS (for Control animals) are administered intravenously via the lateral tail vein. Animals are anesthetised 24 hours later with an intraperitoneal injection of Ketamine/Xylazine and 500-700 μl of blood is collected by cardiac puncture into serum separator tubes (BD Microtainer). Blood is centrifuged at 2,000×g for 10 minutes at 15° C. and serum is collected and stored at −70° C. until analysis. Serum samples are thawed at 37° C. for 30 minutes, diluted in PBS and aliquoted into 96-well assay plates. Factor VII levels are assessed using a chromogenic assay (Biophen FVII kit, Hyphen BioMed) according to manufacturer's instructions and absorbance is measured in a microplate reader equipped with a 405 nm wavelength filter. Plasma FVII levels are quantified and ED50s (dose resulting in a 50% reduction in plasma FVII levels compared to control animals) calculated using a standard curve generated from a pooled sample of serum from control animals. Those formulations of interest showing high levels of FVII knockdown (ED50<<0.1 mg/kg) are re-tested in independent studies at a lower dose range to confirm potency and establish ED50 levels.", "units": {"ED50 (Mouse FVII)": "mg/kg"}, "values": [{"smiles": "CCCCC(C)C(=O)OCCCCCCCCCC(CCCCCCCCCOC(=O)C(C)CCCC)OC(=O)CCCN(C)C", "note": "(centres unmarked)", "ED50 (Mouse FVII)": ">0.30"}, {"smiles": "CCCCC(CC)C(=O)OCCCCCCCCCC(CCCCCCCCCOC(=O)C(CC)CCCC)OC(=O)CCCN(C)C", "note": "(centres unmarked) [drawing 162]", "ED50 (Mouse FVII)": 0.088}, {"smiles": "CN(C)CCCC(=O)OC(CCCCCCCCC(=O)OC1CCCC1)CCCCCCCCC(=O)OC1CCCC1", "ED50 (Mouse FVII)": ">0.30"}, {"smiles": "CN(C)CCCC(=O)OC(CCCCCCCCCOC(=O)CCC1CCCC1)CCCCCCCCCOC(=O)CCC1CCCC1", "ED50 (Mouse FVII)": 0.023}, {"smiles": "CCCCC(CC)C(=O)OCCCCCCCCCC(CCCCCCCCCOC(=O)C(CC)CCCC)OC(=O)CCCN(C)C", "note": "(centres unmarked) [drawing 149]", "ED50 (Mouse FVII)": 0.005}, {"smiles": "CN(C)CCCC(=O)OC(CCCCCC(=O)OC1CCCCC1)CCCCCC(=O)OC1CCCC1", "note": "(centres unmarked)", "ED50 (Mouse FVII)": ">0.30"}, {"smiles": "CN(C)CCCC(=O)OC(CCCCCCCCCOC(=O)C1CCCC1)CCCCCCCCCOC(=O)C1CCCC1", "ED50 (Mouse FVII)": ">0.30"}, {"smiles": "CCCCC(CCCC)OC(=O)CCCCCC(CCCCCC(=O)OC(CCCC)CCCC)OC(=O)CCCN(C)C", "ED50 (Mouse FVII)": ">0.30"}, {"smiles": "CN(C)CCCC(=O)OC(CCCCCCCCC(=O)OCCCC1CCCC1)CCCCCCCCC(=O)OCCCC1CCCC1", "ED50 (Mouse FVII)": 0.12}, {"smiles": "CCCCCC(CC)C(=O)OCCCCCCCCCC(CCCCCCCCCOC(=O)C(CC)CCCCC)OC(=O)CCCN(C)C", "note": "(centres unmarked)", "ED50 (Mouse FVII)": 0.008}, {"smiles": "CN(C)CCCC(=O)OC(CCCCCC(=O)OC1CCCC1)CCCCCC(=O)OC1CCCC1", "ED50 (Mouse FVII)": ">0.30"}, {"smiles": "CN(C)CCCC(=O)OC(CCCCCCCCC(=O)OC1CCCCC1)CCCCCCCCC(=O)OC1CCCCC1", "ED50 (Mouse FVII)": ">0.30"}, {"smiles": "CC(C)CC(CC(C)C)OC(=O)CCCCCCCCCCCC(CCCCCCCCCCCC(=O)OC(CC(C)C)CC(C)C)OC(=O)CCCN(C)C", "ED50 (Mouse FVII)": 0.020}, {"smiles": "CCCCCCOC(=O)CCCCCCCCCCCC(CCCCCCCCCCCC(=O)OCCCCCC)OC(=O)CCCN(C)C", "ED50 (Mouse FVII)": 0.013}, {"smiles": "CCCCCC(CCCC)OC(=O)CCCCCCCCC(CCCCCCCCC(=O)OC(CCCC)CCCCC)OC(=O)CCCN(C)C", "note": "(centres unmarked)", "ED50 (Mouse FVII)": 0.009}, {"smiles": "CCCCC(CCCC)OC(=O)CCCCCCCCC(CCCCCCCCC(=O)OC(CCCC)CCCC)OC(=O)CCCN(C)C", "ED50 (Mouse FVII)": 0.010}, {"smiles": "CC(OCCCCCCCCCC(CCCCCCCCCOC(=O)C1CCCCC1)OC(=O)CCCN(C)C)C1CCCCC1", "note": "(centres unmarked)", "ED50 (Mouse FVII)": 0.032}]}]}
